Experimental findings from patent US12516046B2, “2-oxo-oxazolidine-5-carboxamides as NAV1.8 inhibitors” (Merck Sharp & Dohme LLC, priority 2020, dated 2026) are described below.

Each structure is given as a SMILES string.

Chain of human Nav1.8 (Q9Y5Y9 whole entry): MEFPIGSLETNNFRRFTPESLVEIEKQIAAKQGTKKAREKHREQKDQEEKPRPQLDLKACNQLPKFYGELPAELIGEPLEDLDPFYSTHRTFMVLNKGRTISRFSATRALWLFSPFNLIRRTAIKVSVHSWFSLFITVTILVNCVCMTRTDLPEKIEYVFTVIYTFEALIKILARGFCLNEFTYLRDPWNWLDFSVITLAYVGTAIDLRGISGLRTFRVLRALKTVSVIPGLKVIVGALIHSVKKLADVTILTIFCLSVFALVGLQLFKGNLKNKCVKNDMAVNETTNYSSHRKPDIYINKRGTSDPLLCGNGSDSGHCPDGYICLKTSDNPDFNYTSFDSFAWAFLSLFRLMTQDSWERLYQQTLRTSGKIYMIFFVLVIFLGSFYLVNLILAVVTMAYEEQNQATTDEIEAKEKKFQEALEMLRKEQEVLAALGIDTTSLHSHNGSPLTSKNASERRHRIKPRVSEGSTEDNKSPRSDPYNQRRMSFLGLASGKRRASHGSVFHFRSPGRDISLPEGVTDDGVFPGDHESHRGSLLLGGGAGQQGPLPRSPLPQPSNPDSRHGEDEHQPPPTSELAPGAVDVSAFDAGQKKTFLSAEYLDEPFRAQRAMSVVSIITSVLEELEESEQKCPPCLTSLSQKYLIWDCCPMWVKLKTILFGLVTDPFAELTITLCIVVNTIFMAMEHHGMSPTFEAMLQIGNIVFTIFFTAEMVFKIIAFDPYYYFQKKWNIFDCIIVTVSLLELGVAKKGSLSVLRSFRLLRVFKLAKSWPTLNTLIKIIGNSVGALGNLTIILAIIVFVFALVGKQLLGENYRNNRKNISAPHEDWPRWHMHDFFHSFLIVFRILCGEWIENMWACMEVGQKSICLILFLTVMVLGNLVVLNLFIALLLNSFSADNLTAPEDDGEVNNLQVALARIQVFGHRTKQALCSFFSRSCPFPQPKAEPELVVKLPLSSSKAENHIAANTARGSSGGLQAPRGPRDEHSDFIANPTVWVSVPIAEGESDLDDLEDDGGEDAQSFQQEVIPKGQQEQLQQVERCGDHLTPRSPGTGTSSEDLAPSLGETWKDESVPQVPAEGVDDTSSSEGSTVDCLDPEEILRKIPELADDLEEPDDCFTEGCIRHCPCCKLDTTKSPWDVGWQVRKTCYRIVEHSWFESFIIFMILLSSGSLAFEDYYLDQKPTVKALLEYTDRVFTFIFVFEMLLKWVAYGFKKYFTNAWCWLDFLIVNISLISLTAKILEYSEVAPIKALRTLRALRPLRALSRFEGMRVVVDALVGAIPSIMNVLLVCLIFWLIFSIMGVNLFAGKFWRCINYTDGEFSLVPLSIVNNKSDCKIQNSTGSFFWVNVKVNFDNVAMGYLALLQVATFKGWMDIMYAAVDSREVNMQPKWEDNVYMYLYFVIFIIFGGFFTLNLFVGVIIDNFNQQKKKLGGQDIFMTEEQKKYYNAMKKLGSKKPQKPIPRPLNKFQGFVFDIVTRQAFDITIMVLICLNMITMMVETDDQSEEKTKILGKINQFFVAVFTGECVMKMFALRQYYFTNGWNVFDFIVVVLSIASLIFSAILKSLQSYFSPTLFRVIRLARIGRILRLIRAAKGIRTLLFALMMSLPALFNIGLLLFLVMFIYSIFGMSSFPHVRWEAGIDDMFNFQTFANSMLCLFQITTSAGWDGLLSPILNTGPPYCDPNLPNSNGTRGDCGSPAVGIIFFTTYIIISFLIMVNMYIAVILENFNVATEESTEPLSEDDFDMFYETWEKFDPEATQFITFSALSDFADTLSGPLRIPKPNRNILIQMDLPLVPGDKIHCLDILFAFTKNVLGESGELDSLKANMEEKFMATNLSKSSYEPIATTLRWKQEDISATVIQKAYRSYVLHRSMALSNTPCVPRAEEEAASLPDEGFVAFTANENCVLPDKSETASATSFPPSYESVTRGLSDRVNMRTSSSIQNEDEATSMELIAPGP

In the test the target is human Nav1.8 (Homo sapiens (Human), UniProt Q9Y5Y9). The experiment in a line: Nav1.8 Qube® Assay (automated 384-well patch-clamp). It counts as cell-based. The following applies: human Nav1.8 channels stably expressed in HEK 293 cells. An excerpt:
Qube® Assay Experimental Procedure
A general note: The patch-clamp technique gives a direct electrical read-out from membranes.
Broadly, the IC50 is the concentration that gives 50% inhibition. Higher therefore signals weaker potency. The compound `O=C1NC[C@@H](C(=O)NC(c2ccc(F)c(Cl)c2)c2ccc(F)c(OCC(F)(F)F)n2)O1` (single isomer, unassigned) [Example 1A, (S)—N—((R or S)-(3-chloro-4-fluorophenyl)(5-fluoro-6-(2,2,2-trifluoroethoxy)pyridin-2-yl)methyl)-2-oxooxazolidine-5-carboxamide] came in with an IC50 of 46 nM.
The same measure for `O=C1NC[C@@H](C(=O)NC(c2ccc(F)c(Cl)c2)c2ccc(F)c(OCC(F)(F)F)n2)O1` (single isomer, unassigned) [Example 1B, (S)—N—((R or S)-(3-chloro-4-fluorophenyl)(5-fluoro-6-(2,2,2-trifluoroethoxy)pyridin-2-yl)methyl)-2-oxo-oxazolidine-5-carboxamide]: 4 nM; for `O=C1NC[C@@H](C(=O)NC(c2ccc(Cl)cc2)c2ccc(Cl)c(C(F)(F)F)n2)O1` (single isomer, unassigned) [Example 2A, (S)—N—((R or S)-(5-chloro-6-(trifluoromethyl)pyridin-2-yl)(4-chlorophenyl)methyl)-2-oxooxazolidine-5-carboxamide]: 0.6 nM; for `O=C1NC[C@@H](C(=O)NC(c2ccc(Cl)cc2)c2ccc(Cl)c(C(F)(F)F)n2)O1` (single isomer, unassigned) [Example 2B, (S)—N—((R or S)-(5-chloro-6-(trifluoromethyl)pyridin-2-yl)(4-chlorophenyl)methyl)-2-oxooxazolidine-5-carboxamide]: 30 nM.
The value for `O=C1NC[C@@H](C(=O)NC(c2ccc(Cl)cc2)C23CCC(CC2)C3)O1` (single isomer, unassigned) [Example 3A, (S)-N-((R or S)-bicyclo[2.2.1]heptan-1-yl(4-chlorophenyl)methyl)-2-oxooxazolidine-5-carboxamide] was 133 nM.
The value for `O=C1NC[C@@H](C(=O)NC(c2ccc(Cl)cc2)C23CCC(CC2)C3)O1` (single isomer, unassigned) [Example 3B, (S)-N-((R or S)-bicyclo[2.2.1]heptan-1-yl(4-chlorophenyl)methyl)-2-oxooxazolidine-5-carboxamide] was 1460 nM.
Consider `O=C1NC[C@@H](C(=O)NC(c2ccc(Cl)cc2)C23CC(C(F)(F)F)(C2)C3)O1` (single isomer, unassigned) [Example 4A, (S)-N-((R or S)-(4-chlorophenyl)(3-(trifluoromethyl)bicyclo[1.1.1]pentan-1-yl)methyl)-2-oxooxazolidine-5-carboxamide], for which 28 nM corresponded to half-maximal inhibition (IC50).
As to `O=C1NC[C@@H](C(=O)NC(c2ccc(Cl)cc2)C23CC(C(F)(F)F)(C2)C3)O1` (single isomer, unassigned) [Example 4B, (S)-N-((R or S)-(4-chlorophenyl)(3-(trifluoromethyl)bicyclo[1.1.1]pentan-1-yl)methyl)-2-oxooxazolidine-5-carboxamide], the IC50 turned out to be 312 nM.
The value for `O=C1NC[C@@H](C(=O)NC(c2ccc(F)c(Cl)c2)c2cc(C(F)(F)F)[nH]n2)O1` (single isomer, unassigned) [Example 5A, (S)—N—((R or S)-(3-chloro-4-fluorophenyl)(5-(trifluoromethyl)-1H-pyrazol-3-yl)methyl)-2-oxooxazolidine-5-carboxamide] was 4.8 nM.
The value for `O=C1NC[C@@H](C(=O)NC(c2ccc(F)c(Cl)c2)c2cc(C(F)(F)F)[nH]n2)O1` (single isomer, unassigned) [Example 5B, (S)—N—((R or S)-(3-chloro-4-fluorophenyl)(5-(trifluoromethyl)-1H-pyrazol-3-yl)methyl)-2-oxooxazolidine-5-carboxamide] was 265 nM; that for `CC1NC(=O)OC1C(=O)NC(c1ccc(Cl)cc1)c1ccc(Cl)cc1` (single isomer, unassigned) [Example 6A, (cis or trans)-N-(bis(4-chlorophenyl)methyl)-4-methyl-2-oxooxazolidine-5-carboxamide] was 442 nM; that for `CC1NC(=O)OC1C(=O)NC(c1ccc(Cl)cc1)c1ccc(Cl)cc1` (single isomer, unassigned) [Example 6B, (cis or trans)-N-(bis(4-chlorophenyl)methyl)-4-methyl-2-oxooxazolidine-5-carboxamide] was 1520 nM.
The same measure for `CC1(C(=O)NC(c2ccc(Cl)cc2)c2ccc(Cl)cc2)CNC(=O)O1` (single isomer, unassigned) [Example 7A, (R or S)—N-(bis(4-chlorophenyl)methyl)-5-methyl-2-oxooxazolidine-5-carboxamide]: 14900 nM; for `CC1(C(=O)NC(c2ccc(Cl)cc2)c2ccc(Cl)cc2)CNC(=O)O1` (single isomer, unassigned) [Example 7B, (R or S)—N-(bis(4-chlorophenyl)methyl)-5-methyl-2-oxooxazolidine-5-carboxamide]: 2030 nM.
The compound `O=C1NC[C@@H](C(=O)NC(COc2ccc(F)c(Cl)c2)c2ccc(F)c(Cl)c2)O1` (single isomer, unassigned) [Example 8A, (S)—N—((R or S)-2-(3-chloro-4-fluorophenoxy)-1-(3-chloro-4-fluorophenyl)ethyl)-2-oxooxazolidine-5-carboxamide] had an IC50 of 40 nM.
The value for `O=C1NC[C@@H](C(=O)NC(COc2ccc(F)c(Cl)c2)c2ccc(F)c(Cl)c2)O1` (single isomer, unassigned) [Example 8B, (S)—N—((R or S)-2-(3-chloro-4-fluorophenoxy)-1-(3-chloro-4-fluorophenyl)ethyl)-2-oxooxazolidine-5-carboxamide] was 4.6 nM; that for `O=C1NC[C@@H](C(=O)NC(c2ccc(F)c(Cl)c2F)[C@@H]2CC[C@@H](C(F)(F)F)CO2)O1` (single isomer, unassigned) [Example 9A] was 7.3 nM.
The same measure for `O=C1NC[C@@H](C(=O)NC(c2ccc(F)c(Cl)c2F)[C@@H]2CC[C@@H](C(F)(F)F)CO2)O1` (single isomer, unassigned) [Example 9B]: 9.5 nM; for `O=C1NC[C@@H](C(=O)NC(c2ccc(F)c(Cl)c2F)[C@@H]2CC[C@@H](C(F)(F)F)CO2)O1` (single isomer, unassigned) [Example 9C]: 356 nM.
Compound `O=C1NC[C@@H](C(=O)NC(c2ccc(F)c(Cl)c2F)[C@@H]2CC[C@@H](C(F)(F)F)CO2)O1` (single isomer, unassigned) [Example 9D] showed an IC50 of 2420 nM.
As for `O=C1NC[C@@H](C(=O)NC(c2ccc(Cl)cc2)c2ccnc(C(F)(F)F)n2)O1` (single isomer, unassigned) [Example 11A, (S)-N-((R or S)-(4-chlorophenyl)(2-(trifluoromethyl)pyrimidin-4-yl)methyl)-2-oxooxazolidine-5-carboxamide], inhibition was half-maximal at 23 nM (IC50).
The same measure for `O=C1NC[C@@H](C(=O)NC(c2ccc(Cl)cc2)c2ccnc(C(F)(F)F)n2)O1` (single isomer, unassigned) [Example 11B, (S)-N-((R or S)-(4-chlorophenyl)(2-(trifluoromethyl)pyrimidin-4-yl)methyl)-2-oxooxazolidine-5-carboxamide]: 399 nM.
The same measure for `O=C1NC[C@@H](C(=O)NC(c2ccc(Cl)cc2)c2nc(C(F)(F)F)cs2)O1` (single isomer, unassigned) [Example 12A, (S)-N-((R or S)-(4-chlorophenyl)(4-(trifluoromethyl)thiazol-2-yl)methyl)-2-oxooxazolidine-5-carboxamide]: 16 nM.
The value for `O=C1NC[C@@H](C(=O)NC(c2ccc(Cl)cc2)c2nc(C(F)(F)F)cs2)O1` (single isomer, unassigned) [Example 12B, (S)-N-((R or S)-(4-chlorophenyl)(4-(trifluoromethyl)thiazol-2-yl)methyl)-2-oxooxazolidine-5-carboxamide] was 323 nM; that for `O=C1NC[C@@H](C(=O)NC(c2cncc(Cl)c2)c2ccc(F)c(Cl)c2)O1` (single isomer, unassigned) [Example 13A, (S)-N-((R or S)-(3-chloro-4-fluorophenyl)(5-chloropyridin-3-yl)methyl)-2-oxooxazolidine-5-carboxamide] was 573 nM.
For `O=C1NC[C@@H](C(=O)NC(c2cncc(Cl)c2)c2ccc(F)c(Cl)c2)O1` (single isomer, unassigned) [Example 13B, (S)-N-((R or S)-(3-chloro-4-fluorophenyl)(5-chloropyridin-3-yl)methyl)-2-oxooxazolidine-5-carboxamide], the IC50 is 190 nM.
Regarding `O=C1NC[C@@H](C(=O)NC(c2ccc(F)c(Cl)c2)c2ccc(Cl)cn2)O1` (single isomer, unassigned) [Example 14A, (S)-N-((R or S)-(3-chloro-4-fluorophenyl)(5-chloropyridin-2-yl)methyl)-2-oxooxazolidine-5-carboxamide], it took 21 nM to reach half-maximal inhibition (IC50).
The same measure for `O=C1NC[C@@H](C(=O)NC(c2ccc(F)c(Cl)c2)c2ccc(Cl)cn2)O1` (single isomer, unassigned) [Example 14B, (S)-N-((R or S)-(3-chloro-4-fluorophenyl)(5-chloropyridin-2-yl)methyl)-2-oxooxazolidine-5-carboxamide]: 34 nM; for `O=C1NC[C@@H](C(=O)NC(c2ccc(Cl)cc2)c2n[nH]c3ccccc23)O1` (single isomer, unassigned) [Example 15A, (S)-N-((R or S)-(4-chlorophenyl)(1H-indazol-3-yl)methyl)-2-oxooxazolidine-5-carboxamide]: 57 nM.
The same measure for `O=C1NC[C@@H](C(=O)NC(c2ccc(Cl)cc2)c2n[nH]c3ccccc23)O1` (single isomer, unassigned) [Example 15B, (S)-N-((R or S)-(4-chlorophenyl)(1H-indazol-3-yl)methyl)-2-oxooxazolidine-5-carboxamide]: 58 nM; for `O=C1NC[C@@H](C(=O)NC(c2ccc(Cl)cc2)c2ccc(F)c(C(F)F)n2)O1` (single isomer, unassigned) [Example 16A]: 239 nM.
The compound `O=C1NC[C@@H](C(=O)NC(c2ccc(Cl)cc2)c2ccc(F)c(C(F)F)n2)O1` (single isomer, unassigned) [Example 16B] yielded an IC50 of 3.3 nM.
